The results in this text go back to publication PMC8119899, “A Single Mutation in the Outer Lipid-Facing Helix of a Pentameric Ligand-Gated Ion Channel Affects Channel Function Through a Radially-Propagating Mechanism” (Frontiers in Molecular Biosciences, 2021).

Substitutions are numbered along the chain they refer to.

Common to all, as to type: cell-based
What all share (settings): mean and SEM, n ≥ 3

In assay [1] the target is T1, 5-HT3A receptor C290A (Mus musculus, UniProt P23979, C317A).
T1 sequence (P23979 24-489 C317A): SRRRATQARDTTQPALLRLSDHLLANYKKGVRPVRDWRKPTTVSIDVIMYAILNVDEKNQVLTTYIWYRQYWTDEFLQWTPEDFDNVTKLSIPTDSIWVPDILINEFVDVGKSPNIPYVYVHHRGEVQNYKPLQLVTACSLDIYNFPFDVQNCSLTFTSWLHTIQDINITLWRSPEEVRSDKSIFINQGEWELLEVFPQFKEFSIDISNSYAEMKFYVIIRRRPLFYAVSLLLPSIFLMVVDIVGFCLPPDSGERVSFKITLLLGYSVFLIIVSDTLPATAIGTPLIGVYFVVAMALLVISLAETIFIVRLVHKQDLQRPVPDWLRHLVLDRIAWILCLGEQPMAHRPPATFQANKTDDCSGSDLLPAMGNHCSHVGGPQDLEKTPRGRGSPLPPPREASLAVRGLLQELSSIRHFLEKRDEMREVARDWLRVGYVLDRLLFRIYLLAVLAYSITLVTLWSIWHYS
Nature of the assay: Two-electrode voltage clamp, 5-HT response, C290A receptor in Xenopus oocytes. The procedure: (§1) The mouse 5-HT3A cDNA (Q6J1J7) in pcDNA3.1 (for HEK cell transfection) or pGEMHE (for RNA production) was modified by QuikChange site-directed mutagenesis (Agilent Technologies) to create point mutants (verified by sequencing).
(§2) Xenopus laevis oocytes from EcoCyte Biosciences (Austin Texas) were injected with 100 pg cRNA (generated with the ThermoFisher mMESSAGE mMACHINE T7 transcription kit) and left in injection media [88 mM NaCl, 2.4 mM NaHCO3, 1 mM KCl, 0.82 mM MgSO4 ·7H20, 5 mM Tris-HCl, 0.33 mM Ca(NO3)2·4H2O, 0.41 mM CaCl2·2H2O, 2.51 mM sodium pyruvate, 0.12 mg/ml theophylline, 0.05 mg/ml gentamicin, pH 7.5] at 16 °C for 24 h. […] The holding potential was −60 mV, using glass microelectrodes with a resistance of approximately 1 MΩ backfilled with 3M KCl.
For orientation: Two-electrode voltage clamp is typically applied to oocytes expressing channels or transporters.

Assay [2] deals with T2, WT 5-HT3A receptor (Mus musculus, UniProt P23979).
T2 construct: expressed in transfected cells; host or cells: HEK293
T2 sequence (P23979 24-483 isoform P23979-2 limits assumed): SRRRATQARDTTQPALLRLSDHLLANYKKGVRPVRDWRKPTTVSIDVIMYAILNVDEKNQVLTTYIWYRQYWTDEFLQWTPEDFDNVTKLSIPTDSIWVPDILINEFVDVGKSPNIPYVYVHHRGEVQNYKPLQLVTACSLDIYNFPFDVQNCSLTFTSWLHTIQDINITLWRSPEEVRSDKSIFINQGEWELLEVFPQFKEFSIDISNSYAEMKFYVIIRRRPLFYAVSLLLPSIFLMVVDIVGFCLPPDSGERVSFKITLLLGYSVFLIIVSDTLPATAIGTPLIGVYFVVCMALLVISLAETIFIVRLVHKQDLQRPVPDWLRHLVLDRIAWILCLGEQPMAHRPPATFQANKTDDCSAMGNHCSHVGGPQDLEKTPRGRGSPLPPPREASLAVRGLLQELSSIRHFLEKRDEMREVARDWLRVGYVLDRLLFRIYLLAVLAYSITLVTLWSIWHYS
Briefly: FlexStation membrane potential dye, 5-HT response, WT receptor in HEK293 cells. Here is the method:
as §1
Human embryonic kidney (HEK) 293 cells were maintained at 37 °C at 5% CO2 in a humidified atmosphere, in Dulbecco's Modified Eagle's Medium/Nutrient Mix F12 (1:1) (Invitrogen, Paisley, UK) with GlutaMAX^TM and 10% fetal bovine serum (GE Healthcare) (DMEM/FBS) and passaged when confluent.
As described previously (Price and Lummis, [2005]) cells were incubated for 45 min with fluorescent membrane potential-sensitive dye (Membrane Potential Blue kit, Molecular Devices) diluted in Flex buffer (10 mM HEPES, 115 mM NaCl, 1 mM KCl, 1 mM CaCl2, 1 mM MgCl2, and 10 mM glucose, pH 7.4), and subsequently assayed at room temperature for 180 s, with readings every 2 s. […] (log of the concentration of ligand), a is the minimum response, b is the maximum response, and nH is the Hill slope.

In assay [3] the target is T3, 5-HT3A receptor K255A (Mus musculus, UniProt P23979, K282A).
T3 sequence (P23979 24-489 K282A): T1 sequence (P23979 24-489 C317A) with K259A, A294C
Briefly: Two-electrode voltage clamp, 5-HT response, K255A receptor in Xenopus oocytes. Here is the method:
as §1, §2

Assay [4] addresses T4, 5-HT3A receptor Y441A (Mus musculus, UniProt P23979, Y468A).
T4 sequence (P23979 24-489 Y468A): T1 sequence (P23979 24-489 C317A) with A294C, Y445A
Nature of the assay: Two-electrode voltage clamp, 5-HT response, Y441A receptor in Xenopus oocytes. Also on record: expressed in transfected cells; host or cells: Xenopus laevis oocytes (cRNA injection). Here is the method:
as §1, §2

As for `NCCc1c[nH]c2ccc(O)cc12` [5-HT], the nH in assay [1] was 0.5 ± 0.1; in assay [3], 1.9 ± 0.5; in assay [4] it was 1.0 ± 0.1. For the same compound, the “nH (Hill slope)” value in assay [2] came out at 3.7 ± 0.3.
